Assay results: ChEMBL document CHEMBL1122660 (J Med Chem, 1984)

Legend:
Mus musculus = organism: Mus musculus; experiment: Percentage change in WBC at optimum dose on day 3; assay type: functional
P388 [1] = experiment: Optimum dose (mg/kg) against P388 leukemic cells; assay type: functional, Mus musculus
P388 [2] = experiment: Minimum effective dose against P388 leukemic cells; assay type: functional; details: Mus musculus, read-out: MED
P388 [3] = experiment: Maximum percent T/C (antitumor activity) against P388 leukemia cells for Mitomycin C; assay type: functional, Mus musculus
P388 [4] = experiment: Maximum percent T/C (antitumor activity) against P388 leukemia cells; assay type: functional, Mus musculus
P388 [5] = experiment: Ratio of optimal dose (OD) and minimum effective dose (MED) required for antitumor activity in mice bearing P-388 lymphocytic leukemia; assay type: functional, Mus musculus
[6] = Partition coefficient between 1-octanol and water containing phosphate buffer at pH 7.4; assay type: physicochemical; details: 1-octanol/water containing phosphate buffer
[7] = Distribution between 1-octanol and water containing phosphate buffer at pH 7.4; assay type: physicochemical; details: 1-octanol/water containing phosphate buffer

| SMILES | Change (Mus musculus) | OD (P388 [1]) | minimal effective dose (P388 [2]) | T/C (P388 [3]) | T/C (P388 [4]) | Therapeutic ratio (P388 [5]) | logD [6] | logD [7] |
| --- | --- | --- | --- | --- | --- | --- | --- | --- |
| COC12[C@@H]3N[C@@H]3CN1C1=C(C(=O)C(Nc3nnc(C)s3)=C(C)C1=O)[C@@H]2COC(N)=O (stereo partly specified) | -32% | 25.6 mg/kg | 0.8 mg/kg | 267% | 222% | 32 |  |  |
| COC12[C@@H]3N[C@@H]3CN1C1=C(C(=O)C(Nc3nc4c(Cl)cccc4s3)=C(C)C1=O)[C@@H]2COC(N)=O (stereo partly specified) |  | 25.6 mg/kg | 0.4 mg/kg | 319% | 144% | 64 |  |  |
| COC12[C@@H]3N[C@@H]3CN1C1=C(C(=O)C(Nc3cccc(C#N)c3)=C(C)C1=O)[C@@H]2COC(N)=O (stereo partly specified) |  | 12.8 mg/kg | 0.2 mg/kg | 156% | 172% | 64 | 0.73 |  |
| COC12[C@@H]3N[C@@H]3CN1C1=C(C(=O)C(Nc3ccc(F)cc3)=C(C)C1=O)[C@@H]2COC(N)=O (stereo partly specified) |  | 12.8 mg/kg |  | 278% | 167% | 32 | 1.44 |  |
| COC12[C@@H]3N[C@@H]3CN1C1=C(C(=O)C(Nc3ccccc3)=C(C)C1=O)[C@@H]2COC(N)=O (stereo partly specified) |  | 12.8 mg/kg | 1.6 mg/kg | 200% | 161% | 8 | 1.3 |  |
| COC12[C@@H]3N[C@@H]3CN1C1=C(C(=O)C(Nc3nc4ccccc4s3)=C(C)C1=O)[C@@H]2COC(N)=O (stereo partly specified) |  | 25.6 mg/kg | 12.8 mg/kg | 325% | 150% | 2 |  |  |
| COc1cc(NC2=C(C)C(=O)C3=C(C2=O)[C@H](COC(N)=O)C2(OC)[C@@H]4N[C@@H]4CN32)cc(OC)c1 (stereo partly specified) |  | 6.4 mg/kg | 0.4 mg/kg | 278% | 161% | 16 |  |  |
| COC12[C@@H]3N[C@@H]3CN1C1=C(C(=O)C(Nc3ccc(C#N)cc3)=C(C)C1=O)[C@@H]2COC(N)=O (stereo partly specified) |  | 3.2 mg/kg | 0.8 mg/kg | 233% | 150% | 4 | 0.72 |  |
| COC12[C@@H]3N[C@@H]3CN1C1=C(C(=O)C(Nc3cccc(Cl)c3)=C(C)C1=O)[C@@H]2COC(N)=O (stereo partly specified) |  | 12.8 mg/kg | 6.4 mg/kg | 156% | 139% | 2 | 2.01 |  |
| COC12[C@@H]3N[C@@H]3CN1c1c(O)c(C)c(N=C3C=CC(=S)C=C3)c(O)c1[C@@H]2COC(N)=O (stereo partly specified) |  | 25.6 mg/kg | 1.6 mg/kg | 250% | 131% | 16 | 1.69 |  |
| COC12[C@@H]3N[C@@H]3CN1C1=C(C(=O)C(Nc3nc4cc(Cl)ccc4o3)=C(C)C1=O)[C@@H]2COC(N)=O (stereo partly specified) | -33% | 25.6 mg/kg | 1.6 mg/kg | 267% | 178% | 16 |  |  |
| COC12[C@@H]3N[C@@H]3CN1c1c(O)c(C)c(/N=C3\C=CC(=O)C=C3C)c(O)c1[C@@H]2COC(N)=O (stereo partly specified) | -34% | 25.6 mg/kg | 0.4 mg/kg | 200% | 244% | 64 |  |  |
| COC12[C@@H]3N[C@@H]3CN1C1=C(C(=O)C(Nc3cccc(NC(C)=O)c3)=C(C)C1=O)[C@@H]2COC(N)=O (stereo partly specified) |  | 25.6 mg/kg | 0.2 mg/kg | 211% | 231% | 128 | 0.33 |  |
| COC12[C@@H]3N[C@@H]3CN1C1=C(C(=O)C(Nc3ccc4c(c3)OCO4)=C(C)C1=O)[C@@H]2COC(N)=O (stereo partly specified) |  | 3.2 mg/kg | < 0.2 mg/kg | 211% | 167% | >16 |  |  |
| COC12[C@@H]3N[C@@H]3CN1C1=C(C(=O)C(Nc3nc(C)cs3)=C(C)C1=O)[C@@H]2COC(N)=O (stereo partly specified) |  | 6.4 mg/kg | 0.4 mg/kg | 224% | 172% | 16 |  | 1.16 |
| COc1cc(/N=C2/C(=O)C3=C(C(O)=C2C)N2C[C@H]4N[C@H]4C2(OC)[C@H]3COC(N)=O)c2ncccc2c1 (stereo partly specified) |  | 6.4 mg/kg | 0.4 mg/kg | 178% | 178% | 16 |  |  |
| COC12[C@@H]3N[C@@H]3CN1C1=C(C(=O)C(Nc3ccc4[nH]ncc4c3)=C(C)C1=O)[C@@H]2COC(N)=O (stereo partly specified) |  | 25.6 mg/kg | 0.2 mg/kg | 250% | 206% | 128 |  |  |

| SMILES | Change (Mus musculus) | OD (P388 [1]) | minimal effective dose (P388 [2]) | T/C (P388 [3]) | T/C (P388 [4]) | Therapeutic ratio (P388 [5]) | logD [6] | logD [7] |
| --- | --- | --- | --- | --- | --- | --- | --- | --- |
| [H][C@@]12CN3c4c(O)c(C)c(/N=C5C=C/C(=N/C(N)=O)C=C\5)c(O)c4[C@H](COC(N)=O)C3(OC)[C@]1([H])N2 (stereo partly specified) |  | 25.6 mg/kg | 1.6 mg/kg | 278% | 194% | 16 | 0 |  |
| COC12[C@@H]3N[C@@H]3CN1C1=C(C(=O)C(Nc3cccc(O)c3)=C(C)C1=O)[C@@H]2COC(N)=O (stereo partly specified) |  | 12.8 mg/kg | < 0.2 mg/kg | 211% | 356% | >64 | 0.63 |  |
| COC12[C@@H]3N[C@@H]3CN1c1c(O)c(C)c(N=C3C=CC(=O)C=C3)c(O)c1[C@@H]2COC(N)=O (stereo partly specified) | -27% | 25.6 mg/kg | 0.2 mg/kg | 144% | >300% | 128 | 0.63 |  |
| COC12[C@@H]3N[C@@H]3CN1C1=C(C(=O)C(Nc3ccc([N+](=O)[O-])cc3)=C(C)C1=O)[C@@H]2COC(N)=O (stereo partly specified) |  | 3.2 mg/kg | < 0.2 mg/kg | 233% | 172% | >16 | 1.02 |  |
| COc1ccccc1/N=C1/C(=O)C2=C(C(O)=C1C)N1C[C@H]3N[C@H]3C1(OC)[C@H]2COC(N)=O (stereo partly specified) |  | 25.6 mg/kg | 0.4 mg/kg | 206% | 200% | 128 |  |  |
| COC12[C@@H]3N[C@@H]3CN1C1=C(C(=O)C(Nc3nc4ccc([N+](=O)[O-])cc4s3)=C(C)C1=O)[C@@H]2COC(N)=O (stereo partly specified) |  | 25.6 mg/kg | 25.6 mg/kg | 156% | 128% | 1 |  |  |
| COC12[C@@H]3N[C@@H]3CN1C1=C(C(=O)C(Nc3cc(C)ns3)=C(C)C1=O)[C@@H]2COC(N)=O (stereo partly specified) |  | 25.6 mg/kg |  | 325% | 169% | 32 |  | -0.3 |
| COC12[C@@H]3N[C@@H]3CN1C1=C(C(=O)C(Nc3ccc(I)cc3)=C(C)C1=O)[C@@H]2COC(N)=O (stereo partly specified) |  | 25.6 mg/kg | 25.6 mg/kg | 200% | 128% | 1 | 2.42 |  |
| COC12[C@@H]3N[C@@H]3CN1C1=C(C(=O)C(Nc3cccc4nsnc34)=C(C)C1=O)[C@@H]2COC(N)=O (stereo partly specified) |  | 12.8 mg/kg | 0.8 mg/kg | 250% | 161% | 32 |  |  |
| COC12[C@@H]3N[C@@H]3CN1C1=C(C(=O)C(Nc3cccc(C)c3)=C(C)C1=O)[C@@H]2COC(N)=O (stereo partly specified) |  | 12.8 mg/kg | 0.4 mg/kg | 319% | 181% | 32 | 1.83 |  |
| COc1cccc(NC2=C(C)C(=O)C3=C(C2=O)[C@H](COC(N)=O)C2(OC)[C@@H]4N[C@@H]4CN32)c1 (stereo partly specified) |  | 12.8 mg/kg | 0.2 mg/kg | 319% | 181% | 64 | 1.28 |  |
| COC1=C/C(=N/c2c(C)c(O)c3c(c2O)[C@H](COC(N)=O)C2(OC)[C@@H]4N[C@@H]4CN32)C=CC1=N (stereo partly specified) |  | 25.6 mg/kg | 1.6 mg/kg | 311% | 239% | 16 |  |  |
| COC12[C@@H]3N[C@@H]3CN1C1=C(C(=O)C(Nc3ccc(S(N)(=O)=O)cc3)=C(C)C1=O)[C@@H]2COC(N)=O (stereo partly specified) |  | 25.6 mg/kg | 0.2 mg/kg | 213% | 225% | 128 | -0.52 |  |
| COC12[C@@H]3N[C@@H]3CN1C1=C(C(=O)C(Nc3cccc(N)c3)=C(C)C1=O)[C@@H]2COC(N)=O (stereo partly specified) | -17% | 1.6 mg/kg | < 0.2 mg/kg | 200% | 222% | >8 | 0.07 |  |
| COC12[C@@H]3N[C@@H]3CN1C1=C(C(=O)C(Nc3ccc(C)cc3)=C(C)C1=O)[C@@H]2COC(N)=O (stereo partly specified) | -37% |  |  | 200% | 206% | 32 | 1.86 |  |
| COc1ccc(NC2=C(C)C(=O)C3=C(C2=O)[C@H](COC(N)=O)C2(OC)[C@@H]4N[C@@H]4CN32)cc1N (stereo partly specified) |  | 6.4 mg/kg | 0.2 mg/kg | 311% | 228% | 32 |  |  |
